Target: T1, full-length human BTK (Homo sapiens, UniProt Q06187)
T1 construct: 2.5× stocks of full-length human BTK (08-080) from CarnaBio USA, Inc; purchased CarnaBio USA, Inc., Natick, Mass; 08-080
Experiment: BTK IC50 Enzyme Assay (Assay A), microfluidic off-chip mobility shift kinase assay
Format: biochemical
Settings: kinKDR peptide substrate, 90 min at 27° C.
Procedure: BTK IC50 Enzyme Assay (Assay A)
The following describes a microfluidic, off-chip mobility shift kinase assay used to measure inherent potency of compounds against BTK enzyme.
2.5× stocks of full-length human BTK (08-080) from CarnaBio USA, Inc., Natick, Mass., 1.6×ATP and appropriate kinKDR peptide substrate (FITC-AHA-EEPLYWSFPAKKK10 NH2) were prepared in kinase reaction buffer consisting of 25 mM MgCl2, 0.015% Brij-35 (30%), 100 mM Hepes, pH 7.5, and 10 mM DTT.
5 uL of enzyme buffer and 7.5 uL of ATP/kinKDR peptide substrate mix were added to Matrix (#115304) 384-well, sterile, polypropylene plates (Thermo Fisher Scientific, 15 Hudson, N.H.) with 125 nL of serially diluted compounds prepared in 100% DMSO, and incubated for 90 min. at 27° C. Following the incubation period, reactions were stopped by adding 60 uL stop buffer consisting of 100 mM Hepes, pH 7.5, 0.015% Brij-35 (30%), 0.277% Coating Reagent #3 (Caliper Life Sciences, Mountain View, Calif.), 5% DMSO. Stopped reactions were monitored at −2 PSI, −3000 V/−700 V in a LabChip 3000 plate 20 reader from Caliper Life Sciences, a PerkinElmer Company (Hopkinton, Mass.), and the activity was measured by off-chip mobility shift assay measuring the charge/mass difference between substrate and product resulting from peptide phosphorilation. IC50 and efficacy were determined by plotting log [Inhibitor] vs. % Activity in GeneData Screener (Basel, Switzerland).

T1 sequence (Q06187 whole entry): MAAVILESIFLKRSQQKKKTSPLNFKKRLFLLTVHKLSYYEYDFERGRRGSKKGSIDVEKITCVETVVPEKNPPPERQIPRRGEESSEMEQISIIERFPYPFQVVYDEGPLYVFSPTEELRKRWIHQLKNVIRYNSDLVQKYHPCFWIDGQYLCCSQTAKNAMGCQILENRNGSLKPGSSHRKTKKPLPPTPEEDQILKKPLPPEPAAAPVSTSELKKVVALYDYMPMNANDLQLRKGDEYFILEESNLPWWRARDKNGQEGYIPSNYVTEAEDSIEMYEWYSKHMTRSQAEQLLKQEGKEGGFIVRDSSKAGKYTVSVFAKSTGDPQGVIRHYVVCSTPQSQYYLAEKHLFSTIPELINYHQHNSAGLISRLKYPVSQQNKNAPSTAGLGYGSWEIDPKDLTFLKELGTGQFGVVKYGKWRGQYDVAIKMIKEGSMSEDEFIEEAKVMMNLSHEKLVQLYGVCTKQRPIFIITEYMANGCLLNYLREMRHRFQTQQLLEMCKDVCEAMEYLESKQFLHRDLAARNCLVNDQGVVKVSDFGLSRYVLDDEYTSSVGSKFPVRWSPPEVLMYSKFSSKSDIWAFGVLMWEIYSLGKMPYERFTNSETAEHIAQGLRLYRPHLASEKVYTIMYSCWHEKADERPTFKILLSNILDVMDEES

IC50 | SMILES
0.1 to 1 µM | CN(C)C/C=C/C(=O)N[C@H]1C[C@@H](n2ncc3ncnc(Oc4ccc(Oc5ccccc5)cc4)c32)C1 [Compound 36, (E)-4-(dimethylamino)-N-((1s,3s)-3-(7-(4-phenoxyphenoxy)-1H-pyrazolo[4,3-d]pyrimidin-1-yl)cyclobutyl)but-2-enamide]
0.1 to 1 µM | C=CC(=O)N1CCC(Cn2ccc3ncnc(Oc4ccc(Oc5ccccc5)cc4)c32)CC1 [Compound 37, 1-(4-((4-(4-phenoxyphenoxy)-5H-pyrrolo[3,2-d]pyrimidin-5-yl)methyl)piperidin-1-yl)prop-2-en-1-one]
0.1 to 1 µM | C/C=C/C(=O)N1CC(n2ccc3ncnc(Oc4ccc(Oc5ccccc5)cc4)c32)C1 [Compound 38, (E)-1-(3-(4-(4-phenoxyphenoxy)-5H-pyrrolo[3,2-d]pyrimidin-5-yl)azetidin-1-yl)but-2-en-1-one]
0.1 to 1 µM | C=CC(=O)N[C@H]1CC[C@H](n2ccc3ncnc(Oc4ccc(Oc5ccccc5)cc4)c32)CC1 [Compound 39, N-(trans-4-(4-(4-phenoxyphenoxy)-5H-pyrrolo[3,2-d]pyrimidin-5-yl)cyclohexyl)acrylamide]
0.1 to 1 µM | C=CC(=O)N1CCC(Cn2ccc3ncnc(-c4cccc(Oc5ccccc5)c4)c32)C1 (centres unmarked) [Compound 40, 1-(3-((4-(3-phenoxyphenyl)-5H-pyrrolo[3,2-d]pyrimidin-5-yl)methyl)pyrrolidin-1-yl)prop-2-en-1-one]
0.1 to 1 µM | CN(C)C/C=C/C(=O)N[C@H]1C[C@H](n2ncc3ncnc(Oc4ccc(Oc5ccccc5)cc4)c32)C1 [Compound 41, (E)-4-(dimethylamino)-N-((1r,3r)-3-(7-(4-phenoxyphenoxy)-1H-pyrazolo[4,3-d]pyrimidin-1-yl)cyclobutyl)but-2-enamide]
1 to 5 µM | C=CC(=O)NCCn1ccc2ncnc(Oc3ccc(Oc4ccccc4)cc3)c21 [Compound 42, N-(2-(4-(4-phenoxyphenoxy)-5H-pyrrolo[3,2-d]pyrimidin-5-yl)ethyl)acrylamide]
1 to 5 µM | C=CC(=O)N1CC(n2ccc3ncnc(Oc4cnn(Cc5ccccc5)c4)c32)C1 [Compound 43, 1-(3-(4-((1-benzyl-1H-pyrazol-4-yl)oxy)-5H-pyrrolo[3,2-d]pyrimidin-5-yl)azetidin-1-yl)prop-2-en-1-one]
1 to 5 µM | C=CC(=O)N1CCCC(Cn2ccc3ncnc(-c4cccc(Oc5ccccc5)c4)c32)C1 (centres unmarked) [Compound 44, 1-(3-((4-(3-phenoxyphenyl)-5H-pyrrolo[3,2-d]pyrimidin-5-yl)methyl)piperidin-1-yl)prop-2-en-1-one]
1 to 5 µM | C=CC(=O)N1CCC(Cn2ccc3ncnc(-c4cccc(Oc5ccccc5)c4)c32)CC1 [Compound 45, 1-(4-((4-(3-phenoxyphenyl)-5H-pyrrolo[3,2-d]pyrimidin-5-yl)methyl)piperidin-1-yl)prop-2-en-1-one]
1 to 5 µM | C=CC(=O)N1CCC(Cn2ccc3ncnc(-c4ccc(Oc5ccccc5)cc4)c32)C1 (centres unmarked) [Compound 46, 1-(3-((4-(4-phenoxyphenyl)-5H-pyrrolo[3,2-d]pyrimidin-5-yl)methyl)pyrrolidin-1-yl)prop-2-en-1-one]
> 5 µM | C=CC(=O)N1CCC(Cn2ccc3ncnc(-c4ccc(Oc5ccccc5)cc4)c32)CC1 [Compound 47, 1-(4-((4-(4-phenoxyphenyl)-5H-pyrrolo[3,2-d]pyrimidin-5-yl)methyl)piperidin-1-yl)prop-2-en-1-one]
> 5 µM | C=CC(=O)N1CCCC(Cn2ccc3ncnc(-c4ccc(Oc5ccccc5)cc4)c32)C1 (centres unmarked) [Compound 48, 1-(3-((4-(4-phenoxyphenyl)-5H-pyrrolo[3,2-d]pyrimidin-5-yl)methyl)piperidin-1-yl)prop-2-en-1-one]
> 5 µM | CC(C)=CC(=O)N1CC(n2ccc3ncnc(Oc4ccc(Oc5ccccc5)cc4)c32)C1 [Compound 49, 3-methyl-1-(3-(4-(4-phenoxyphenoxy)-5H-pyrrolo[3,2-d]pyrimidin-5-yl)azetidin-1-yl)but-2-en-1-one]

Source: patent publication US9738648B2, “Pyridines, pyrimidines, and pyrazines, as BTK inhibitors and uses thereof” (Merck Patent GmbH, priority 2013, dated 2017)
